Experimental data taken from patent publication US11261201B2 (priority 2018, dated 2022).
≈ marks a conversion by molar mass, not a printed value. Where a name gives a salt, the structure may show the parent alone. Read-outs that look alike come from different tables or passages of the source.

Legend:
H37RvMA = assay: Tuberculosis Alamar Blue/Resazurin assay (MIC); assay type: cell-based; settings: read-out: WT H37Rv MTB Activity
E. coli = assay: Gram negative MIC protocol (OD600, LB, 24 h); settings: for MIC: Escherichia coli
Protocol: (§1) Overnight bacterial cultures were grown in LB with no added antibiotics at 37° C. with shaking. A 1:1000 dilution of these cultures into LB was exposed to concentration gradients of compounds in 96-well plates (100 μL per well assay volume). Resulting plates were incubated at 37° C. for 24 h without shaking, and OD600 was measured at the end of the incubation. MICs were determined as the lowest concentrations at which OD600 remained at baseline.

A. baumannii = assay: Gram negative MIC protocol (OD600, LB, 24 h); settings: for MIC: Acinetobacter baumannii
Protocol: as §1

[1] = Mycobacterium tuberculosis, H37RV, WT H37Rv MTB
[2] = read-out: MIC E. coli delta-TolC LB Media, E. coli delta-TolC, LB media, OD600
[3] = read-out: MIC WT E. coli LB Media, WT E. coli, LB media, OD600
[4] = read-out: MIC A. baumannii LB Media, A. baumannii, LB media, 24 h, OD600
[5] = Mycobacterium tuberculosis, H37RV
[6] = read-out: MIC A. baumannii LB Media
[7] = read-out: MIC E. coli delta-TolC LB Media, E. coli delta-TolC strain, LB media, 24 h, OD600
[8] = read-out: MIC WT E. coli LB Media, wild-type E. coli, LB media, 24 h, OD600

SMILES | MIC (H37RvMA; [1]) [µM] | MIC (E. coli; [2]) [µM] | MIC (E. coli; [3]) [µM] | MIC (A. baumannii; [4]) [µM] | MIC (E. coli; [7]) [µM] | MIC (E. coli; [8]) [µM] | further results
C1=C(CC2CCCN2Cc2ccccc2)CCCC1 (stereo not drawn) [B161] | > 150 | > 300 | > 300 | > 150 | – | – | –
CC1=C(C)CC(CC(C)NCc2ccccc2)CC1 (stereo not drawn) [B162, N-benzyl-1-(3,4-dimethylcyclohex-3-en-1-yl)propan-2-amine] | > 150 | 300 (≈ 77.2 µg/mL) | > 500 | > 150 | – | – | –
C1=C(CC2CCCCN2Cc2ccccc2)CCCC1 (stereo not drawn) [B163] | > 150 | 300 (≈ 80.8 µg/mL) | > 300 | > 150 | – | – | –
CCC(CC1CCCCC1)NCc1ccccc1 (stereo not drawn) [B164, N-benzyl-1-cyclohexylbutan-2-amine] | > 150 | 60 (≈ 14.7 µg/mL) | > 300 | > 150 | – | – | –
CCCC(CC1CCCCC1)NCc1ccccc1 (stereo not drawn) [B165, N-benzyl-1-cyclohexylpentan-2-amine] | > 150 | 60 (≈ 15.6 µg/mL) | > 300 | > 150 | – | – | –
CCC(CC1CCCCC1)NCc1ccccc1F (stereo not drawn) [B166, 1-cyclohexyl-N-(2-fluorobenzyl)butan-2-amine hydrochloride] | > 150 | 250 | > 300 | 300 | – | – | –
c1ccc(CNC(CC2CCCCC2)C2CC2)cc1 (stereo not drawn) [B167, N-benzyl-2-cyclohexyl-1-cyclopropylethanamine] | > 150 | > 300 | > 300 | > 300 | – | – | –
OCC(CC1CCCCC1)NCc1ccccc1 (stereo not drawn) [B168, 2-(benzylamino)-3-cyclohexylpropan-1-ol] | – | 182 (≈ 45 µg/mL) | 170 (≈ 42.1 µg/mL) | – | – | – | MIC (H37RvMA; [5]): > 150 µM; MIC (A. baumannii; [6]): 410 µM (≈ 101 µg/mL)
c1ccc(CNC(CC2CCCCC2)c2ccccc2)cc1 (stereo not drawn) [B169, N-benzyl-2-cyclohexyl-1-phenylethanamine hydrochloride] | > 150 | 74 | > 300 | > 300 | – | – | –
C[C@H](CC1=CCCCC1)NCc1ccccc1 [B170] | – | > 300 | > 300 | – | – | – | MIC (H37RvMA; [5]): > 150 µM; MIC (A. baumannii; [6]): > 300 µM
C[C@@H](CC1=CCCCC1)NCc1ccccc1 [B171] | – | 19 (≈ 4.36 µg/mL) | 41 (≈ 9.4 µg/mL) | – | – | – | MIC (H37RvMA; [5]): > 150 µM; MIC (A. baumannii; [6]): 110 µM (≈ 25.2 µg/mL)
OC(CNCc1ccccc1)C1CCCCC1 (stereo not drawn) [B172] | – | 96 (≈ 22.4 µg/mL) | 170 (≈ 39.7 µg/mL) | – | – | – | MIC (H37RvMA; [5]): > 150 µM; MIC (A. baumannii; [6]): > 300 µM
OC[C@@H](Cc1ccccc1)NCc1ccccc1 [B173] | > 150 | > 300 | > 300 | > 300 | – | – | –
OC[C@H](Cc1ccccc1)NCc1ccccc1 [B174] | > 150 | > 300 | > 300 | > 300 | – | – | –
c1ccc(CNC2CCC2c2ccccc2)cc1 (stereo not drawn) [B176] | > 150 | > 300 | > 300 | > 300 | – | – | –
FC(F)(F)C(CC1CCCCC1)NCc1ccccc1 (stereo not drawn) [B177] | > 150 | > 300 | > 300 | > 300 | – | – | –
CC1CCCCC1CCNCc1ccccc1 (stereo not drawn) [B178] | 55 (≈ 12.7 µg/mL) | > 300 | > 300 | > 300 | – | – | –
CC1CCCC(CCNCc2ccccc2)C1 (stereo not drawn) [B179] | 150 (≈ 34.7 µg/mL) | 230 (≈ 53.2 µg/mL) | > 300 | > 300 | – | – | –
O=C(O)C(CC1CCCCC1)NCc1ccccc1 (stereo not drawn) [B180] | > 150 | > 300 | > 300 | > 300 | – | – | –
c1ccc(CCNCc2ccccc2)cc1 [B181] | – | > 300 | > 300 | – | – | – | MIC (H37RvMA; [5]): > 150 µM; MIC (A. baumannii; [6]): > 300 µM
c1ccc(CNCCC23CCCCC2C3)cc1 (stereo not drawn) [B182] | 91 (≈ 20.9 µg/mL) | > 300 | > 300 | > 300 | – | – | –
FC1(F)C2CCCCC21CCNCc1ccccc1 (stereo not drawn) [B183] | > 150 | > 300 | > 300 | > 300 | – | – | –
O=C(O)C1CCCCC1CCNCc1ccccc1 (stereo not drawn) [B184] | > 150 | > 300 | > 300 | > 300 | – | – | –
COC(=O)C1CCCCC1CCNCc1ccccc1 (stereo not drawn) [B185] | > 150 | > 300 | > 300 | > 300 | – | – | –
OC1(CCNCc2ccccc2)CCCCC1 [B187] | > 150 | > 300 | > 300 | > 300 | – | – | –
OC1(CCNCc2ccccc2)CCCCC1Cl (stereo not drawn) [B188] | > 150 | > 300 | > 300 | > 300 | – | – | –

SMILES | MIC (H37RvMA; [1]) [µM] | MIC (E. coli; [2]) [µM] | MIC (E. coli; [3]) [µM] | MIC (A. baumannii; [4]) [µM] | MIC (E. coli; [7]) [µM] | MIC (E. coli; [8]) [µM] | further results
OC1CCCCC1CCNCc1ccccc1 (stereo not drawn) [B189] | > 150 | > 300 | > 300 | > 300 | – | – | –
COC1CCCCC1CCNCc1ccccc1 (stereo not drawn) [B190] | > 150 | > 300 | > 300 | > 300 | – | – | –
CC(NCc1ccccc1)C1[C@H]2C[C@@H]3C[C@@H](C[C@H]1C3)C2 (stereo partly drawn) [B191] | > 150 | 300 (≈ 80.8 µg/mL) | > 300 | 300 (≈ 80.8 µg/mL) | – | – | –
c1ccc(CNCCc2cccc3ccccc23)cc1 [B192] | 33 (≈ 8.63 µg/mL) | 96 (≈ 25.1 µg/mL) | 300 (≈ 78.4 µg/mL) | 300 (≈ 78.4 µg/mL) | – | – | –
OC(CNCc1ccccc1)c1cccc2ccccc12 (stereo not drawn) [B193] | 150 (≈ 41.6 µg/mL) | 300 (≈ 83.2 µg/mL) | > 300 | 300 (≈ 83.2 µg/mL) | – | – | –
CC(Cc1ccc2ccccc2c1)NCc1ccccc1 (stereo not drawn) [B194] | – | – | – | – | – | – | MIC (H37RvMA): 150 µM (≈ 41.3 µg/mL); MIC E. coli delta-TolC LB Media (E. coli; E. coli delta-TolC, LB media, OD600): 170 µM (≈ 46.8 µg/mL); MIC WT E. coli LB Media (E. coli; WT E. coli, LB media, OD600): >300 µM; MIC A. baumannii LB Media (A. baumannii; A. baumannii, LB media, OD600): 300 µM (≈ 82.6 µg/mL)
c1ccc(CNC2CCc3cccc4cccc2c34)cc1 (stereo not drawn) [B195] | > 150 | 300 (≈ 82 µg/mL) | > 300 | > 300 | – | – | –
C[C@@H](NCc1ccccc1)C12CC3CC(CC(C3)C1)C2 [B196] | 55 (≈ 14.8 µg/mL) | 300 (≈ 80.8 µg/mL) | > 300 | > 300 | – | – | –
C[C@H](NCc1ccccc1)C12CC3CC(CC(C3)C1)C2 [B197] | > 150 | 96 (≈ 25.9 µg/mL) | 170 (≈ 45.8 µg/mL) | 300 (≈ 80.8 µg/mL) | – | – | –
c1ccc(CNCCC23CC4CC(CC(C4)C2)C3)cc1 [B198] | – | – | – | 170 (≈ 45.8 µg/mL) | 170 (≈ 45.8 µg/mL) | > 300 | MIC (H37RvMA; WT H37Rv MTB): 91 µM (≈ 24.5 µg/mL)
COc1ccc2cccc(CCNCc3ccccc3)c2c1 [B199] | 150 (≈ 43.7 µg/mL) | – | – | 170 (≈ 49.5 µg/mL) | 170 (≈ 49.5 µg/mL) | > 300 | –
COc1ccc2ccccc2c1CCNCc1ccccc1 [B200] | 91 (≈ 26.5 µg/mL) | – | – | 300 (≈ 87.4 µg/mL) | 170 (≈ 49.5 µg/mL) | > 300 | –
COc1ccc(CC(C)NCc2ccccc2)c2ccccc12 (stereo not drawn) [B201] | – | – | – | 170 (≈ 51.9 µg/mL) | 96 (≈ 29.3 µg/mL) | > 300 | MIC (H37RvMA; [5]): 91 µM (≈ 27.8 µg/mL)
COCC(CC1CCCCC1)NCc1ccccc1 (stereo not drawn) [B202, N-benzyl-1-cyclohexyl-3-methoxypropan-2-amine hydrochloride] | > 150 | – | – | > 300 | > 300 | > 300 | –
COC(=O)C(CC1CCCCC1)NCc1ccccc1 (stereo not drawn) [B203, methyl 2-(benzylamino)-3-cyclohexylpropanoate hydrochloride] | > 150 | – | – | > 300 | 170 | > 300 | –
O=C(O)C(CC1CCCCC1)NCc1ccccc1 (stereo not drawn) [B204, 2-(benzylamino)-3-cyclohexylpropanoic acid] | – | – | – | > 300 | > 300 | > 300 | MIC (H37RvMA; WT H37Rv MTB): >150 µM
NC(=O)C(CC1CCCCC1)NCc1ccccc1 (stereo not drawn) [B205, 2-(benzylamino)-3-cyclohexylpropanamide hydrochloride] | > 150 | – | – | > 300 | > 300 | > 300 | –
c1ccc(CNC2Cc3ccccc3C2)cc1 [B206, N-benzyl-2,3-dihydro-1H-inden-2-amine hydrochloride] | > 150 | – | – | > 300 | > 300 | > 300 | –
Fc1ccc2c(c1)[C@@H](NCc1ccccc1)CC2 [B208, hydrochloride] | > 150 | – | – | > 300 | > 300 | > 300 | –
COc1ccc2c(c1)[C@@H](NCc1ccccc1)CC2 [B209, (S)-N-benzyl-6-methoxy-2,3-dihydro-1H-inden-1-amine hydrochloride] | > 150 | – | – | > 300 | > 300 | > 300 | –
CC(C)(C)OC(=O)N(Cc1ccccc1)C(C=O)CC1CCCCC1 (stereo not drawn) [B210, tert-butyl benzyl(1-cyclohexyl-3-oxopropan-2-yl)carbamate] | > 150 | – | – | > 300 | > 300 | > 300 | –
FC1(F)CCC(CCNCc2ccccc2)CC1 [B212, N-benzyl-2-(4,4-difluorocyclohexyl)ethanamine hydrochloride] | > 150 | – | – | > 300 | > 300 | > 300 | –
c1ccc(CNCC2CCc3ccccc32)cc1 (stereo not drawn) [B213, N-benzyl-1-(2,3-dihydro-1H-inden-1-yl)methanamine hydrochloride] | > 150 | – | – | > 300 | > 300 | > 300 | –
Cl.c1ccc(CNCC2CCCc3ccccc32)cc1 (stereo not drawn) [B214, N-benzyl-1-(1,2,3,4-tetrahydronaphthalen-1-yl)methanamine hydrochloride] | – | – | – | > 300 | > 300 | > 300 | MIC (H37RvMA; WT H37Rv MTB): >150 µM
c1ccc(CNCCC2CCNCC2)cc1 [B215, N-benzyl-2-(piperidin-4-yl)ethanamine hydrochloride] | > 150 | – | – | > 300 | > 300 | > 300 | –
